In US20250002463A1, “NEW SALT FORMS OF AMILORIDE AND ITS DERIVATIVES FOR PHARMACEUTICAL USE” (PSOMRI Holding AB, priority 2021, published 2025):
Several values for one entry are separate records, joined by “and”; a condition that tells them apart may be missing. Equal entries are not always repeated.

Experiments:
[1] = Polymorphism: solid forms found in salt screen by HT-XRPD; assay type: physicochemical; conditions: Example 1 salt screen in MeOH, DME, THF
Protocol: The precipitated solids were analyzed by high throughput X-ray powder diffractometry (HT XRPD). Liquid phases (both solutions and mother liquors) were evaporated at ambient conditions and the residual solids were analyzed by HT XRPD.
The salt screen experiments were carried out in methanol (MeOH), 1,2-dimethoxyethane (DME) and tetrahydrofuran (THF).

[2] = Aqueous solubility of salts, Example 1 (aliquot addition; HPLC after 24 h at RT; pH of solutions/mother liquors); conditions: Example 1; RT; aliquot addition (ranges) or HPLC after 24 h, not in Table 3
Protocol: The aqueous solubility of the salts was estimated qualitatively by the solvent aliquot addition method. Aliquots of water up to 500-600 μL were added to approximately 5 mg of salt. The solubility of the free base was also estimated.
The suspensions were let equilibrating at room temperature for 24 h. Afterwards, solids were separated from the liquid phases. The liquid phases were filtered and analyzed by HPLC to determine the solubility. The pH of solutions/mother liquors was also measured.
Suspensions of the two salts were prepared in water with a concentration of 9-10 mg/mL. The mixtures were let equilibrating at RT for 24 h. Afterwards, solids were separated from the liquid phases. The liquid phases were filtered and analyzed by HPLC to determine the solubility. The pH of mother liquors was also measured.

[3] = Hygroscopicity by Dynamic Vapor Sorption (DVS); assay type: physicochemical; conditions: based on water vapour uptake at 25° C./80% RH
Protocol: The hygroscopic behaviour of the salts was evaluated through Dynamic Vapor Sorption (DVS) measurements with an RH profile 40-95-0-40% at 25° C. and a dm/dt of 0.002. The classification of the hygroscopic behaviour is based on the water vapour uptake at 25° C./80% RH in first adsorption cycle of sorption isotherm.

[4] = Polymorphic landscape by thermocycling of amorphous salt in 15 solvents; assay type: physicochemical; conditions: for polymorphs found: Example 3, thermocycling from amorphous salt, 15 solvents; for HT-XRPD Vac.: vacuum-dried solid; for HT-XRPD Vac. (AAC): vacuum-dried solid after AAC 48 h; for HT-XRPD Evap.: evaporated liquid; for HT-XRPD Evap. (AAC): evaporated liquid after AAC 48 h
[5] = Intrinsic dissolution rate (rotating disc, μDiss) in water and FaSSIF; assay type: physicochemical; conditions: for IDR (mg/cm^2/min) Individual: single disc
Protocol: Rotating disc intrinsic dissolution determinations were performed with a μDiss apparatus (Pion, USA) equipped with 6 independent glass fiber probes each connected to a diode area. Before the start of the experiment the probes were calibrated using the spectrum of a Mercury 362 nm pen-ray lamp. Discs were prepared in a passivated aluminum dye with a mini-IDR press (Heath Scientific, UK).
Six dilutions of benzamil lactate salt were prepared in the dissolution media in the range from 0 to 0.5 mg/mL, and the solutions were stirred with a cross-shaped magnetic stirrer. These dilutions were used for the calibration curve which is used for the calculation of the amount of benzamil in solution. Moreover, the solutions were used to select the wavelength at which the samples were to be measured and to select the proper path length.
The dyes were placed in their Teflon holder magnet stirrer and placed into 20 mL glass vials. Before to the sample measurement, a blank of each media was taken in the respective channel. The experiment started by the gentle addition of the pre-warmed dissolution media. Vials were incubated at 37° C. under continuous stirring at 100 rpm for a maximum of 4 h. UV absorption was measured with the in-line probes at regular intervals. Upon completion of the experiment the pH of the solution was determined. Concentrations of API in solution were calculated with use of the calibration curve and plotted against time. Dissolution rates were calculated over the linear parts of the curves. All dissolution rate experiments were done in triplicate except for TFA1 which were done in duplicate due to the lack of material.

[6] = Physio-chemical stability study, open container 25° C./60% RH and 40° C./75% RH (UPLC, TGMS, HT-XRPD); assay type: physicochemical; conditions: for UPLC 1 week / UPLC 3 weeks / UPLC 3 days: chemical purity
Protocol: Open container at 25° C. and 60% RH • 2. Open container at 40° C. and 75% RH

[7] = Kinetic and thermodynamic solubility in water at 37° C. (1 h and 18 h, UPLC)
[8] = Physical stability under Accelerated Aging Conditions (AAC, 40° C./75% RH, 2 days), HT-XRPD
[9] = thermocycling in Acetone/water (95/5% v/v)
[10] = thermocycling in EtOH/water (95/5% v/v)
[11] = thermocycling in IPA/water (95/5% v/v)
[12] = open container 25° C. and 60% RH
[13] = open container 40° C. and 75% RH
[14] = water, 37° C., 30 mg/ml suspension

## CC(O)C(=O)O.NC(=NCc1ccccc1)NC(=O)c1nc(Cl)c(N)nc1N [LAC1]
[1]
  Polymorphism: No
[1]; listed as lactate salt
  Polymorphism: Only one polymorph
[2]
  Water solubility: 26 to 51 mg/mL
[3]
  classification of hygroscopic behaviour: slightly hygroscopic
[4]; listed as benzamil lactate salt
  polymorphs found: not to be polymorphic
[4]; listed as lactate salt
  polymorphs found: Only one polymorph
[4]; thermocycling in 1,4-Dioxane
  HT-XRPD Vac.: LAC1
  HT-XRPD Vac. (AAC): LAC1
[4]; thermocycling in ACN
  HT-XRPD Vac.: LAC1
  HT-XRPD Vac. (AAC): LAC1
[4]; thermocycling in Acetone
  HT-XRPD Vac.: LAC1
  HT-XRPD Vac. (AAC): LAC1
[4]; [9]
  HT-XRPD Vac.: LAC1
  HT-XRPD Vac. (AAC): LAC1
[4]; thermocycling in DME
  HT-XRPD Vac.: LAC1
  HT-XRPD Vac. (AAC): LAC1
[4]; thermocycling in EtOAc
  HT-XRPD Vac.: LAC1
  HT-XRPD Vac. (AAC): LAC1
[4]; thermocycling in EtOH
  HT-XRPD Vac.: LAC1
  HT-XRPD Vac. (AAC): LAC1
[4]; [10]
  HT-XRPD Evap.: LAC1
  HT-XRPD Evap. (AAC): LAC1
  HT-XRPD Vac.: LAC1
  HT-XRPD Vac. (AAC): LAC1
[4]; thermocycling in IPA
  HT-XRPD Vac.: LAC1
  HT-XRPD Vac. (AAC): LAC1
[4]; [11]
  HT-XRPD Vac.: LAC1
  HT-XRPD Vac. (AAC): LAC1
[4]; thermocycling in MEK
  HT-XRPD Vac.: LAC1
  HT-XRPD Vac. (AAC): LAC1
[4]; thermocycling in MeOH
  HT-XRPD Evap.: Oil
  HT-XRPD Evap. (AAC): Oil
[4]; thermocycling in TBME
  HT-XRPD Vac.: LAC1
  HT-XRPD Vac. (AAC): LAC1
[4]; thermocycling in THF
  HT-XRPD Vac.: LAC1
  HT-XRPD Vac. (AAC): LAC1
[4]; thermocycling in Water
  HT-XRPD Evap.: LAC1
  HT-XRPD Evap. (AAC): LAC1
  HT-XRPD Vac.: ly
  HT-XRPD Vac. (AAC): ly
[5]
  dissolution rate compared with TFA2 and TFA1: significantly faster
[5]; FaSSIF, 37° C., 100 rpm
  IDR (mg/cm^2/min) Average: 0.39 ± 0.11 mg/cm^2/min
  IDR (mg/cm^2/min) Individual: 0.285 mg/cm^2/min and 0.510 mg/cm^2/min and 0.389 mg/cm^2/min
[5]; Water, 37° C., 100 rpm
  IDR (mg/cm^2/min) Average: 1.87 ± 0.06 mg/cm^2/min
  IDR (mg/cm^2/min) Individual: 1.870 mg/cm^2/min and 1.811 mg/cm^2/min and 1.933 mg/cm^2/min
[5]; water, 37° C.
  time until the whole tablet has been dissolved: about 50 min
[5]; water, 37° C., 100 rpm, linear part (LAC1 1 to 36 min; TFA 10-100 min)
  Intrinsic Dissolution Rate (IDR): 1.87±0.06 mg/cm^2/min
[6]; chemical purity at start of stability study
  UPLC t0: 99.4%
[6]; [12]
  UPLC 1 week: 99.4%
  UPLC 3 weeks: 99.4%
  UPLC 3 days: 99.4%
  TGMS 1 week: <0.1% water
  XRPD 1 week: LAC1
  TGMS 3 weeks: <0.1% water
  XRPD 3 weeks: LAC1
  TGMS 3 days: 1.2% water
  XRPD 3 days: LAC1
[6]; [13]
  UPLC 1 week: 99.2%
  UPLC 3 weeks: 99.4%
  UPLC 3 days: 99.4%
  TGMS 1 week: 0.2% water
  XRPD 1 week: LAC1
  TGMS 3 weeks: <0.1% water
  XRPD 3 weeks: LAC1
  TGMS 3 days: 1.5% water
  XRPD 3 days: LAC1
[6]; incubation for 3 weeks at 25° C./60% RH and 40° C./75% RH
  physical and chemical stability: physically and chemically stable
[6]; start of stability study
  TGMS t0: 0.4% water
  XRPD t0: LAC1
[7]; overall conclusion of Example 3
  solubility compared with the TFA salts: significantly higher solubility
[7]; residual solid after 1 h in water at 37° C., ambient-dried
  XRPD 1 h Amb.: LAC1
[7]; residual solid after 1 h in water at 37° C., vacuum-dried
  XRPD 1 h Vac.: LAC1
[7]; residual solid after 18 h in water at 37° C., ambient-dried
  XRPD 18 h Amb.: Am
[7]; residual solid after 18 h in water at 37° C., vacuum-dried
  XRPD 18 h Vac.: LAC1
[7]; [14]
  pH after 10 min: 5.9
  pH after 1 h: 5.8
  pH after 18 h: 5.8
[7]; water, 37° C., 1 h (kinetic), UPLC
  Solubility (mg/mL) 1 h: 24.3 mg/mL
[7]; water, 37° C., 18 h (thermodynamic), UPLC
  Solubility (mg/mL) 18 h: 23.6 mg/mL
[8]; AAC, 2 days at 40° C. and 75% RH, solids from thermocycling
  Physically stable?: Yes
[8]; Example 1, 40° C./75% RH for 2 days
  Physically stable after AAC: physically stable and Yes
[8]; Example 3 thermocycling solids, 2 days at 40° C. and 75% RH
  physical stability upon exposure to AAC: physically stable
